From article PMC11828871, “Structural basis of anticancer drug recognition and amino acid transport by LAT1” (Nature Communications, 2025)
Each block holds one compound with its values, some of them ahead of it.

What was measured:
LAT1 [1] = target: T1, LAT1 (Homo sapiens, UniProt Q01650); assay: cryo-EM structure (outward-open, nanodisc)
T1 construct: gene SLC7A5; LAT1–CD98hc in lipid nanodiscs with Fab170; with CD98hc (4F2hc; SLC3A2)

LAT1 [2] = target: T2, LAT1 (Homo sapiens, UniProt Q01650, F400V); assay: inhibition of L-[…]Leu uptake in Xenopus oocytes; assay type: cell-based
T2 construct: gene SLC7A5; F400V LAT1 expressed in Xenopus oocytes; with CD98hc (4F2hc; SLC3A2)

LAT1 [3] = target: T3, LAT1 (Homo sapiens, UniProt Q01650, F252W); assay: inhibition of L-[…]Leu uptake in Xenopus oocytes; assay type: cell-based
T3 construct: gene SLC7A5; F252W LAT1 co-expressed with CD98hc in Xenopus oocytes; with CD98hc (4F2hc; SLC3A2)

LAT1 [4] = target: T1, LAT1; assay: cryo-EM structure in nanodiscs ([…] Å); IC50 from L-[…]Leu uptake in Xenopus oocytes; assay type: cell-based
LAT1 [5] = target: T1, LAT1; assay: cryo-EM structure ([…] Å, occluded); cis inhibition and counterflow assays in oocytes

T1 sequence (Q01650 whole entry): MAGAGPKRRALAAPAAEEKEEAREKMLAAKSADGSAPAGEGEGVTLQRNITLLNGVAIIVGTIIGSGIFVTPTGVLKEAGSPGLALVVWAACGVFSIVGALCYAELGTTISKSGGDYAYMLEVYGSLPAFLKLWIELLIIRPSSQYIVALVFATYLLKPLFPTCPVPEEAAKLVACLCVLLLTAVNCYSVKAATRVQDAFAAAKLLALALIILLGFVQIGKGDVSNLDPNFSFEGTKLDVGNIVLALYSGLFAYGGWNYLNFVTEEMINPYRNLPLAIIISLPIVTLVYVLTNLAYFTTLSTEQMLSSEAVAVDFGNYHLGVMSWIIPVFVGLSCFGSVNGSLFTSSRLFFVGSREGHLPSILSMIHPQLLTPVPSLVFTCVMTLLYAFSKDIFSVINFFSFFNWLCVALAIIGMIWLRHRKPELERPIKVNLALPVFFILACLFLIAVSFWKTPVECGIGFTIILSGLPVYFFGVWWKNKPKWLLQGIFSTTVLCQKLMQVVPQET
T1 sequence (P08195 103-630 partner): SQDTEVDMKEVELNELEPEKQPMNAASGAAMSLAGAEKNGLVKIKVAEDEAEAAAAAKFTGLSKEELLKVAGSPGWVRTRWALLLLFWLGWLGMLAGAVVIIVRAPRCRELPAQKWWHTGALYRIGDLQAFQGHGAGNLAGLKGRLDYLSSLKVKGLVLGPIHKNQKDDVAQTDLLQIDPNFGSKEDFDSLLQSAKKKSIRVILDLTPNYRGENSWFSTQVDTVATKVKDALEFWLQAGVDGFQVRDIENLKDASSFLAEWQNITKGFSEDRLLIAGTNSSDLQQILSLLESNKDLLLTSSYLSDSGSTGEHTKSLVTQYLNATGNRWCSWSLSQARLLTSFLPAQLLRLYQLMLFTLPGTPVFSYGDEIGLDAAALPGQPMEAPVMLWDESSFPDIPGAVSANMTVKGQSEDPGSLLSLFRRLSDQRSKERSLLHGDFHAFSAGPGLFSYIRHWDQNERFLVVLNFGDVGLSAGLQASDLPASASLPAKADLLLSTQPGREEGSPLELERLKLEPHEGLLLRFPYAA
T2 sequence (Q01650 whole entry F400V): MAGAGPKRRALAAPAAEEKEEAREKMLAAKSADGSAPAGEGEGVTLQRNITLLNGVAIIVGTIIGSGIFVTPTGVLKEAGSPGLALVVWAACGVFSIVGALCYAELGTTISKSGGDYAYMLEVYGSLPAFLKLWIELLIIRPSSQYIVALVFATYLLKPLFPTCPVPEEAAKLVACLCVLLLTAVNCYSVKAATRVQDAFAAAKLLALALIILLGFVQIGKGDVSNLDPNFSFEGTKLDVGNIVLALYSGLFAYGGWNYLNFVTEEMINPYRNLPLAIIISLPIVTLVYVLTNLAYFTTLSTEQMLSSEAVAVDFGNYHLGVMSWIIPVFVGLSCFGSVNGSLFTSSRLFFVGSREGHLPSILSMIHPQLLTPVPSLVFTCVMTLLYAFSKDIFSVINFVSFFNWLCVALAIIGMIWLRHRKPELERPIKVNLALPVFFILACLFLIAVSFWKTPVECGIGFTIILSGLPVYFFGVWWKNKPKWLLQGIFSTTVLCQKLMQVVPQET
T2 sequence (P08195 103-630 partner): as the sequence (P08195 103-630 partner) above
T3 sequence (Q01650 whole entry F252W): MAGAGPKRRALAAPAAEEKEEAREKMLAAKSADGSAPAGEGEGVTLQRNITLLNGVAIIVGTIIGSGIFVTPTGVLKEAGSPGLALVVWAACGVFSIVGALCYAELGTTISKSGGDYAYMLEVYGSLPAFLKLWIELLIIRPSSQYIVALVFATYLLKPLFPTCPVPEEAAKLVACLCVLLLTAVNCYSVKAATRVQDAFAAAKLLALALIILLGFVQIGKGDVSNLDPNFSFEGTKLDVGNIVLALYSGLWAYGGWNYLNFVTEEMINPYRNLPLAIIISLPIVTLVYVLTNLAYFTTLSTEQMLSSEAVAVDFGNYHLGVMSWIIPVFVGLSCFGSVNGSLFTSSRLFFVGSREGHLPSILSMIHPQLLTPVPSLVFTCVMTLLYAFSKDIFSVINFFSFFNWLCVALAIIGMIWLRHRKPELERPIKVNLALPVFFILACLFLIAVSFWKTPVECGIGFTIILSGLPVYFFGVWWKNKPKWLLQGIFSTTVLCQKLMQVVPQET
T3 sequence (P08195 103-630 partner): as the sequence (P08195 103-630 partner) above

SMILES: N[C@@H](Cc1ccc(N(CCCl)CCCl)cc1)C(=O)O [melphalan]
cryo-EM structure (outward-open, nanodisc) (LAT1 [1]): bis-(2-chloroethyl)amino side group is placed in the space surrounded by TM3, TM6a and TM10

IC50 (LAT1 [3]): 36 nM
IC50 (LAT1 [4]): 542 nM
SMILES: Nc1cc(COc2c(Cl)cc(C[C@H](N)C(=O)O)cc2Cl)c2oc(-c3ccccc3)nc2c1 [JPH203, (S)-2-amino-3-(4-((5-amino-2-phenylbenzo [d]oxazol-7-yl)methoxy)-3,5-dichlorophenyl) propanoic acid]
inhibition of L-[14C]Leu uptake in Xenopus oocytes (LAT1 [2]): the variant F400V retained its activity and was sensitive to JPH203

SMILES: NC1(C(=O)O)CC2CCC1C2 (centres unmarked) [BCH, 2-aminobicyclo[2.2.1]heptane-2-carboxylic acid]
cryo-EM structure (3.7 Å, occluded); cis inhibition and counterflow assays in oo (LAT1 [5]): BCH is bound in the canonical substrate-binding pocket, with its carboxy and amino moieties recognized
